Laboratory results from ChEMBL document CHEMBL5036332, “Glucose-Lipopeptide Conjugates Reveal the Role of Glucose Modification Position in Complexation and the Potential of Malignant Melanoma Therapy” (J Med Chem, 2021).
*1 amine or outer side, *2 acyl side, *3 side chain or, on linkers, in order; H or OH if unused. Where a SMILES comes first, the peptide text is derived from it. Side-chain parts run from the residue outwards. The star is where a group is joined. NH(CH2)3O(βDGlc) = OC[C@H]1O[C@@H](OCCCN*)[C@H](O)[C@@H](O)[C@@H]1O; Glutaryl = O=C(CCCC(=O)[*:2])[*:1]; Lauroyl = CCCCCCCCCCCC(=O)*

Columns and labels:
[1] = target: T1, Solute carrier family 2, facilitated glucose transporter member 1 (Homo sapiens) (UniProt P11166); assay: Binding affinity to GLUT1 (unknown origin) assessed as binding free energy
T1 sequence (whole entry): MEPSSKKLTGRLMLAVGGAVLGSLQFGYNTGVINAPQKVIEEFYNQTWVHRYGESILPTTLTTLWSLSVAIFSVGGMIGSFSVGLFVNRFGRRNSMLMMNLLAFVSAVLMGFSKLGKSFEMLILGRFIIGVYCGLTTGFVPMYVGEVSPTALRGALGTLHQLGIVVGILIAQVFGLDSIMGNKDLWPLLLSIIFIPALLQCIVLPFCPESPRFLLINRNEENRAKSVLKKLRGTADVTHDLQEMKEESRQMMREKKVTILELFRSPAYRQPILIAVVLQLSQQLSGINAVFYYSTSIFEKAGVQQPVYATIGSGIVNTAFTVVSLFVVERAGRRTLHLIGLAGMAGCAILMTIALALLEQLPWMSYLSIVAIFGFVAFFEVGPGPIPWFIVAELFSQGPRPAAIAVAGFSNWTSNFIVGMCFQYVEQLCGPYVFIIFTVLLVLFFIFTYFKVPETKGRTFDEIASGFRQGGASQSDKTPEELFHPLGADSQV

[2] = organism: Homo sapiens; assay: Binding affinity to membrane (unknown origin) assessed as binding free energy
[3] = test system: B16-F10; assay: Cytotoxicity against mouse B16-F10 cells assessed as cell viability after 24 hrs by CCK-8 assay; assay type: functional, cell-based; conditions: B16-F10, 24 h
[4] = target: T1, Solute carrier family 2, facilitated glucose transporter member 1 (Homo sapiens); assay: Binding affinity to GLUT1 (unknown origin) membrane assessed as free energy

| SMILES | deltaG [1] | deltaG [2] | IC50 [3] | deltaG [4] |
| --- | --- | --- | --- | --- |
| CCCCCCCCCCCC(=O)N[C@@H](CCCCNC(=O)CCCC(=O)NCCCO[C@@H]1O[C@H](CO)[C@@H](O)[C@H](O)[C@H]1O)C(=O)NCC(=O)N[C@@H](Cc1c[nH]c2ccccc12)C(=O)N[C@@H](Cc1ccccc1)C(=O)N[C@@H](CCCNC(=N)N)C(=O)N[C@@H](C)C(=O)N[C@@H](CCSC)C(=O)N[C@@H](CCCNC(=N)N)C(=O)N[C@@H](CO)C(=O)N[C@H](C(=O)N[C@@H](C)C(=O)N[C@@H](CCCNC(=N)N)C(=O)N[C@@H](Cc1ccccc1)C(=O)N[C@H](C(=O)N[C@@H](C)C(=O)N[C@@H](CCCNC(=N)N)C(=O)N[C@@H](CCC(=O)O)C(=O)N[C@@H](CCCNC(=N)N)C(=O)N[C@@H](CC(C)C)C(=O)N[C@@H](CCCNC(=N)N)C(=O)N[C@@H](CCC(=O)O)C(=O)N[C@@H](Cc1cnc[nH]1)C(=O)N[C@@H](CC(C)C)C(N)=O)[C@@H](C)CC)[C@@H](C)CC (Lauroyl-K([Glutaryl-NH(CH2)3O(βDGlc)])GWFRAMRSIARFIARERLREHL-NH2) | -61.7 kcal/mol | -61.5 kcal/mol | 7.2 µM | -73.7 kcal/mol |
| CCCCCCCCCCCC(=O)N[C@@H](CCCNC(=N)N)C(=O)NCC(=O)N[C@@H](Cc1c[nH]c2ccccc12)C(=O)N[C@@H](Cc1ccccc1)C(=O)N[C@@H](CCCCNC(=O)CCCC(=O)NCCCO[C@@H]1O[C@H](CO)[C@@H](O)[C@H](O)[C@H]1O)C(=O)N[C@@H](C)C(=O)N[C@@H](CCSC)C(=O)N[C@@H](CCCNC(=N)N)C(=O)N[C@@H](CO)C(=O)N[C@H](C(=O)N[C@@H](C)C(=O)N[C@@H](CCCNC(=N)N)C(=O)N[C@@H](Cc1ccccc1)C(=O)N[C@H](C(=O)N[C@@H](C)C(=O)N[C@@H](CCCNC(=N)N)C(=O)N[C@@H](CCC(=O)O)C(=O)N[C@@H](CCCNC(=N)N)C(=O)N[C@@H](CC(C)C)C(=O)N[C@@H](CCCNC(=N)N)C(=O)N[C@@H](CCC(=O)O)C(=O)N[C@@H](Cc1cnc[nH]1)C(=O)N[C@@H](CC(C)C)C(N)=O)[C@@H](C)CC)[C@@H](C)CC (Lauroyl-RGWFK([Glutaryl-NH(CH2)3O(βDGlc)])AMRSIARFIARERLREHL-NH2) | -64.3 kcal/mol | -63.6 kcal/mol | 5.3 µM | -64.1 kcal/mol |
| CCCCCCCCCCCC(=O)N[C@@H](CCCNC(=N)N)C(=O)NCC(=O)N[C@@H](Cc1c[nH]c2ccccc12)C(=O)N[C@@H](Cc1ccccc1)C(=O)N[C@@H](CCCNC(=N)N)C(=O)N[C@@H](C)C(=O)N[C@@H](CCSC)C(=O)N[C@@H](CCCCNC(=O)CCCC(=O)NCCCO[C@@H]1O[C@H](CO)[C@@H](O)[C@H](O)[C@H]1O)C(=O)N[C@@H](CO)C(=O)N[C@H](C(=O)N[C@@H](C)C(=O)N[C@@H](CCCNC(=N)N)C(=O)N[C@@H](Cc1ccccc1)C(=O)N[C@H](C(=O)N[C@@H](C)C(=O)N[C@@H](CCCNC(=N)N)C(=O)N[C@@H](CCC(=O)O)C(=O)N[C@@H](CCCNC(=N)N)C(=O)N[C@@H](CC(C)C)C(=O)N[C@@H](CCCNC(=N)N)C(=O)N[C@@H](CCC(=O)O)C(=O)N[C@@H](Cc1cnc[nH]1)C(=O)N[C@@H](CC(C)C)C(N)=O)[C@@H](C)CC)[C@@H](C)CC (Lauroyl-RGWFRAMK([Glutaryl-NH(CH2)3O(βDGlc)])SIARFIARERLREHL-NH2) | -58.5 kcal/mol | -27.5 kcal/mol | 4.1 µM | -87.4 kcal/mol |
| CCCCCCCCCCCC(=O)N[C@@H](CCCNC(=N)N)C(=O)NCC(=O)N[C@@H](Cc1c[nH]c2ccccc12)C(=O)N[C@@H](Cc1ccccc1)C(=O)N[C@@H](CCCNC(=N)N)C(=O)N[C@@H](C)C(=O)N[C@@H](CCSC)C(=O)N[C@@H](CCCNC(=N)N)C(=O)N[C@@H](CO)C(=O)N[C@H](C(=O)N[C@@H](C)C(=O)N[C@@H](CCCNC(=N)N)C(=O)N[C@@H](Cc1ccccc1)C(=O)N[C@H](C(=O)N[C@@H](C)C(=O)N[C@@H](CCCNC(=N)N)C(=O)N[C@@H](CCC(=O)O)C(=O)N[C@@H](CCCCNC(=O)CCCC(=O)NCCCO[C@@H]1O[C@H](CO)[C@@H](O)[C@H](O)[C@H]1O)C(=O)N[C@@H](CC(C)C)C(=O)N[C@@H](CCCNC(=N)N)C(=O)N[C@@H](CCC(=O)O)C(=O)N[C@@H](Cc1cnc[nH]1)C(=O)N[C@@H](CC(C)C)C(N)=O)[C@@H](C)CC)[C@@H](C)CC (Lauroyl-RGWFRAMRSIARFIAREK([Glutaryl-NH(CH2)3O(βDGlc)])LREHL-NH2) | -60.1 kcal/mol | -66.8 kcal/mol | 3.3 µM | -72.8 kcal/mol |
| CCCCCCCCCCCC(=O)N[C@@H](CCCNC(=N)N)C(=O)NCC(=O)N[C@@H](Cc1c[nH]c2ccccc12)C(=O)N[C@@H](Cc1ccccc1)C(=O)N[C@@H](CCCNC(=N)N)C(=O)N[C@@H](C)C(=O)N[C@@H](CCSC)C(=O)N[C@@H](CCCNC(=N)N)C(=O)N[C@@H](CO)C(=O)N[C@H](C(=O)N[C@@H](C)C(=O)N[C@@H](CCCNC(=N)N)C(=O)N[C@@H](Cc1ccccc1)C(=O)N[C@H](C(=O)N[C@@H](C)C(=O)N[C@@H](CCCNC(=N)N)C(=O)N[C@@H](CCC(=O)O)C(=O)N[C@@H](CCCNC(=N)N)C(=O)N[C@@H](CC(C)C)C(=O)N[C@@H](CCCCNC(=O)CCCC(=O)NCCCO[C@@H]1O[C@H](CO)[C@@H](O)[C@H](O)[C@H]1O)C(=O)N[C@@H](CCC(=O)O)C(=O)N[C@@H](Cc1cnc[nH]1)C(=O)N[C@@H](CC(C)C)C(N)=O)[C@@H](C)CC)[C@@H](C)CC (Lauroyl-RGWFRAMRSIARFIARERLK([Glutaryl-NH(CH2)3O(βDGlc)])EHL-NH2) | -77.1 kcal/mol | -65.7 kcal/mol | 3.5 µM | -123 kcal/mol |
| CCCCCCCCCCCC(=O)N[C@@H](CCCNC(=N)N)C(=O)NCC(=O)N[C@@H](Cc1c[nH]c2ccccc12)C(=O)N[C@@H](Cc1ccccc1)C(=O)N[C@@H](CCCNC(=N)N)C(=O)N[C@@H](C)C(=O)N[C@@H](CCSC)C(=O)N[C@@H](CCCNC(=N)N)C(=O)N[C@@H](CO)C(=O)N[C@H](C(=O)N[C@@H](C)C(=O)N[C@@H](CCCNC(=N)N)C(=O)N[C@@H](Cc1ccccc1)C(=O)N[C@@H](CC(C)C)C(=O)N[C@@H](C)C(=O)N[C@@H](CCCCNC(=O)CCCC(=O)NCCCO[C@@H]1O[C@H](CO)[C@@H](O)[C@H](O)[C@H]1O)C(=O)N[C@@H](CCC(=O)O)C(=O)N[C@@H](CCCNC(=N)N)C(=O)N[C@@H](CC(C)C)C(=O)N[C@@H](CCCNC(=N)N)C(=O)N[C@@H](CCC(=O)O)C(=O)N[C@@H](Cc1cnc[nH]1)C(=O)N[C@@H](CC(C)C)C(N)=O)[C@@H](C)CC (Lauroyl-RGWFRAMRSIARFLAK([Glutaryl-NH(CH2)3O(βDGlc)])ERLREHL-NH2) | -61 kcal/mol | -87.9 kcal/mol | 3.8 µM | -79.9 kcal/mol |
